From US5866775A, “Glyphosate-tolerant 5-enolpyruvyl-3-phosphoshikimate synthases” (Monsanto Company, priority 1990, dated 1999)

Tested on: petunia leaf disks transformed with pMON546 (CaMV35S/EPSP synthase gene)
Assay: Leaf disk callus growth on glyphosate medium, transformed disks
Type: cell-based
Settings: within 10 days
Method: Leaf disks with diameters of 6 mm (1/4 inch) were taken from surface-sterilized petunia leaves. They were cultured on MS104 agar medium for 2 days to promote partial cell wall formation at the wound surfaces. They were then submerged in a culture of A. tumefaciens cells containing both pMON546 and GV3111-SE which had grown overnight in Luria broth at 28° C., and shaken gently. The leaf disks were removed from the bacterial suspension, blotted dry, and incubated upside down on filter paper placed over "nurse" cultures of tobacco cells, as described by Horsch (1980). After 2 or 3 days, the disks were transferred to petri dishes containing MS media with 500 μg/ml carbenicillin and 0. 0.1, 0.25, or 0.5 mM glyphosate (sodium salt), with no nurse cultures.

SMILES: O=C(O)CNCP(=O)(O)O [glyphosate, N-phosphonomethylglycine]
- callus growth, transformed versus control disks (0.1 mM glyphosate (sodium salt)): little detectable difference between the control disks and the transformed tissue
- callus growth (0.25 mM glyphosate (sodium salt)): substantial growth of transformed tissue occurred
- callus growth (0.5 mM glyphosate (sodium salt)): a significant number of calli grew from the transformed disks
